# Source: article PMC3341351, “Down-Regulation of GABAA Receptor via Promiscuity with the Vasoactive Peptide Urotensin II Receptor. Potential Involvement in Astrocyte Plasticity” (PLoS ONE, 2012)
# Assays:
# [1] = system: GABAAR in astrocytes (mono-culture); assay: Patch-clamp responsiveness of astrocytes in mono-culture to isoguvacine; type: cell-based, rat; conditions: Iso 10^−4 M; n = 31
# Protocol: Primary cultures of astrocytes were prepared as previously described. Briefly, cerebellum from 7-day-old (P7) Wistar rats were collected in DMEM/Ham-F12 (2∶1, v/v) culture medium supplemented with 2 mM glutamine, 1% insulin, 5 mM HEPES, 0.4% D(+)-glucose and 1% of the antibiotic-antimycotic solution. The tissues were disaggregated mechanically with a syringue equipped with a 1-mm gauge needle, and filtered through a 100-µm pore size mesh filter (Falcon, Becton Dickinson, Grenoble, France). Dissociated cells were resuspended in culture medium supplemented with 10% heat-inactivated FBS and seeded in 150-cm^2 culture flasks (Falcon) at a density of 20×10^6 cells/flask. Cells were incubated at 37°C in a humidified atmosphere (5% CO2) and the medium was changed twice a week. When cultures were confluent, the flasks were gently shaken on an orbital shaker at […] for 2 h. Dislodged cells were discarded and a second step of purification was performed at […] for 14–16 h. Remaining adhesive cells were collected by trypsination, centrifuged (800 g, 10 min) and plated in 150-cm^2 flasks. Suspended astrocytes were harvested and seeded in 24-well poly-L-lysine-coated plates. The purity of the cultures was previously assessed by counting the percentage of astrocytes immunostained with GFAP antibodies. The enriched cultures contained >99% astrocytes. […]
# [2] = molecular target: T1, α2β3γ2 GABAAR co-expressed with human UT (Homo sapiens, UniProt Q9UKP6); assay: Patch-clamp of Iso-evoked current in CHO-UT co-expressing α2β3γ2 GABAAR (CHO-UT-GABAAR); type: cell-based
# T1 construct: expressed in transfected cells; host or cells: CHO-K1 stably expressing human UT (pIRES-neo2-UT), transiently nucleofected with GABAAR subunit cDNAs
# T1 sequence (Q9UKP6 1-389): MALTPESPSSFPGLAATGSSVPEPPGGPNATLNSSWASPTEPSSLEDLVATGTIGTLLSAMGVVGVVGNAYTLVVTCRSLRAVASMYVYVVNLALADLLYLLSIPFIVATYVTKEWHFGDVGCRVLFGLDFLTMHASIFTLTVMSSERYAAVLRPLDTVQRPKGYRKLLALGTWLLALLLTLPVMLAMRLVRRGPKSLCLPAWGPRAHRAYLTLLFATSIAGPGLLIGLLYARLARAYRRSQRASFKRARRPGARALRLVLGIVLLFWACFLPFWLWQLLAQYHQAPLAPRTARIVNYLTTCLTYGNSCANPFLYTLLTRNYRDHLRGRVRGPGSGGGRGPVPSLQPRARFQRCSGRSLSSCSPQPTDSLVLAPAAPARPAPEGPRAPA
# Protocol: CHO-K1 cell lines were obtained from American Type Culture Collection (Manassas, VA, USA). The human UT stable CHO (CHO-UT) was generously provided by Dr Christophe Dubessy (Inserm, Rouen University, France) et generated by CHO electroporation with 20 µg pIRES-neo2-UT DNA and 500 µg sterile sonicated salmon sperm DNA using the EasyJect One electroporation system (Equibio, Angleur, Belgium), followed by repetitive rounds of limiting dilution of cells in G-418 (400 µg/ml) for selection. Normal or stable CHO was grown in Ham-F12 medium supplemented with 10% FBS, 1% antibiotic-antimicotic solution and 2 mM glutamine, at 37°C in a humidified incubator with an atmosphere of 5% CO2. The stable CHO-UT medium was supplemented with the antibiotic G-418 (40 µg/ml).
# For transfection, cells were trypsinized (0.05%), triturated in HamF-12 containing 10% FBS media, pelleted by centrifugation, resuspended in 100 µl solution V for nucleofection by an Amaxa Nucleofector Device (Köln, Germany; set to program U-016). Experiments were performed on normal CHO or on the stable CHO-UT cells and transiently transfected with combinations of cDNA encoding α2β3γ2, α2β3γ1, α2β1γ2, α2β3γ1, α2β3, β3γ2 (4 µg of cDNA total/transfection) GABAAR subunits. Cells were seeded on 14-mm poly-L-lysine-coated glass bottom insert dishes at 5×10^5 cells in a volume of 0.5 ml/dish. Cells were incubated overnight at 37°C in a humidified incubator (5% CO2) during 16 h before electrophysiological or immunocytochemical experiments.
# GABAA receptor cDNA clones; α2, β1, β3, γ1 and γ2L engineered into the expression vector pCDM8 ([…], β1, γ2) or pcDNA/Amp (β3, γ1), were generously provided by Dr Wingrove (Merk Sharp and Dohme, Harlow, UK). To obtain β3 ^HA or γ2 ^HA epitope-tagged subunits, β3 or γ2 cDNA was amplified and the PCR product was subcloned using the SalI and NotI sites of pCMV-HA (Table S2) after digestion by the same restriction enzymes.
# The conventional whole-cell configuration of the patch-clamp technique was used to study the GABA-gated currents in astrocytes and granule neurons, UT stably transfected CHO, CHO-UT, and CHO transiently transfected with diverse variants of UT and GABAAR subunits. After 24-h transfection, cell culture coverslips were placed in a small chamber (1.5 ml) on a stage of a right microscope DMLFSA (Leica, Heidelberg, Germany) and superfused continuously with the following bath solution containing (in mM): NaCl, 150; KCl, 2.5; HEPES, 5; CaCl2, 2; MgCl2, 1; glucose, 10 (pH 7.4 adjusted with NaOH). The patch pipettes were fabricated from 1.5 mm (outer diameter) soft glass tubes on a two-step vertical pipette puller (List-Medical, L/M-3P-A, Darmstadt, Germany). […] ATP and GTP were added to the internal solution used to fill electrode just before recording. All recordings were obtained at RT with cells voltage-clamped at −70 mV. The GABAA receptor agonist isoguvacine was prepared in the extracellular solution and was applied to cells by pneumatic pressure ejection. To prevent desenzitization, isoguvacine was more often ejected during 5 s at 2-min intervals. ATP, GTP, or guanosine 5′-O-(2-thiodiphosphate) (GDPβS) were administered through the patch pipette solution. We investigated the effect of competitive inhibition of GDP-GTP exchange by including GDPβS in the pipette solution (in addition to the normal amount of GTP). For GDPβS and the KIC, immediately following patch rupture, GABA current recordings were performed and the experiment was commenced after an equilibration period of 15 min.
# All peptide ligands, inhibitors or allosteric modulators of the GABAA receptor function were applied via gravity through a plastic tubing positioned in the vicinity of the cell body in order to maintain a sustained perfusion. In these conditions, drugs could reach the cell of interest after 30 s of perfusion. Isoguvacine was applied focally by pneumatic pressure ejection from a micropipette.
structure (smiles),measurement,setting,value
"O=C(O)C1=CCNCC1 [Iso, isoguvacine]","Cells responding to isoguvacine, astrocytes in mono-culture",[1],12%
same,Apparent desensitization of Iso-evoked current,"[2]; Iso 10^−4 M continuous ejection, control (Iso alone) or with hUII 10^−8 M",59%
same,Chloride reversal potential (EqCl^−),"[2]; I–V relationship, Iso 10^−4 M without (control) or with hUII 10^−8 M",4.84 mV
same,Mean time constant of recovery from desensitization (50% receptors),"[2]; after long Iso exposure (30 s), control (Iso alone) or with hUII",16.2 s
